Here are results for nine compounds from PMC13194776, “Small-molecule binding and sensing with a designed protein family” (Nature Communications, 2026).

Bounds are passed on as bounds.

One experiment addresses T1, ohp1952.
T1 construct: N-terminal hexahistidine tag; original design
The experiment in a line: Fluorescence polarization cross-reactivity assay with TAMRA-labelled ligands at 5 nM (HCY, OHP, WRF) or 10 nM (SN-38) titrated with binder or albumin. In kind it is binding. The conditions noted are these: read-out: KD (μM), specificity table, TAMRA-labelled targets. The text has this: (§1) measured against all six targets. Raw binding traces can be found in Supplementary
For orientation: Fluorescence polarisation rises when a labelled molecule tumbles more slowly, as on binding a larger partner.

The target in a further experiment is T2, albumin.
T2 construct: control protein
Described as above. In kind it is binding. The conditions noted are these: read-out: KD (μM), specificity table, TAMRA-labelled targets.
Description: as §1

Experiment [1] addresses T3, iri807.1.
T3 construct: N-terminal hexahistidine tag; 3 mutations compared to the original design
Described as above. Type of experiment: binding. The conditions noted are these: read-out: KD (μM), specificity table, TAMRA-labelled targets.
Description: as §1

The target in experiment [2] is T4, roc22182.1.
T4 construct: N-terminal hexahistidine tag; 9 mutations compared to the original design
The description is as above. The conditions noted are these: read-out: KD (μM), specificity table, TAMRA-labelled targets. In kind it is binding.
Description: as §1

Experiment [3] addresses T5, hcy129.1.
T5 construct: N-terminal hexahistidine tag; 4 mutations compared to the original design
The experiment is described as above. The conditions noted are these: read-out: KD (μM), specificity table, TAMRA-labelled targets. Type of experiment: binding.
Description: as §1

For another experiment, the target named is T6, apx2592.
T6 construct: N-terminal hexahistidine tag; original design
The experiment in a line: Isothermal titration calorimetry at 25 °C with warfarin or apixaban, 5% DMSO in all solutions, single-site binding model. The conditions noted are these: read-out: KD (μM), ITC, warfarin and apixaban. The method, then: (§2) Binding affinity of designed proteins was assessed by titrating purified protein with ligand using a microcal PEAQ ITC-Automated instrument. Both protein and ligand were prepared in identical buffers that were degassed by bottle-top filtration. […] All titrations were performed at 25 °C and 19 total injections, 0.4 μL for the first injection and 2 μL for the remaining 18. Resulting titration data were analyzed with the Malvern Panalytical ITC Analysis software, and a single-site binding model was used to fit the resulting data.
(Isothermal titration calorimetry measures the heat released or taken up as one component is titrated into another.)

The next experiment addresses T7, apx1049.
T7 construct: N-terminal hexahistidine tag; original design
The description is as above. The conditions noted are these: read-out: KD (μM), ITC, warfarin and apixaban. The method, then: as §2

For another experiment, the target named is T8, apx1501.
T8 construct: N-terminal hexahistidine tag; original design
Described as above. The conditions noted are these: read-out: KD (μM), ITC, warfarin and apixaban. The method, then:
as §2

Another experiment concerns the target T9, apx1493.
T9 construct: N-terminal hexahistidine tag; original design
Described as above. The conditions noted are these: read-out: KD (μM), ITC, warfarin and apixaban. The method, then: as §2

The target in experiment [4] is T5, hcy129.1. The experiment is described as follows: Isothermal titration calorimetry of purified designs with unlabelled ligand at 25 °C, single-site fit; 1% DMSO for cortisol, 5% DMSO for warfarin and apixaban, HEPES pH 8 for rocuronium. In kind it is binding. The conditions noted are these: read-out: KD (μM) ITC. The method, then: Characterization of binding affinity by ITC
as §2

The target of another experiment is T10, hcy129.1_CID.
T10 construct: 7 mutations compared to the original design
The experiment in a line: Isothermal titration calorimetry at 25 °C with cortisol, 1% DMSO in all solutions, single-site binding model. The conditions noted are these: read-out: KD (μM), ITC, cortisol. The method, then: as §2
(§3) Supplementary Table 2. Small-molecule binding characterization results
(§4) Target Design name Number of KD (μM) KD determination

A further experiment has as its target T11, hcy129_mpnn5.
T11 construct: ProteinMPNN surface-redesigned version; 9 mutations compared to the original design as printed
The experiment is described as above. The conditions noted are these: read-out: KD (μM), ITC, cortisol. The method, then: as §2, §3, §4

In another experiment the target is T12, hcy129.
T12 construct: N-terminal hexahistidine tag; original design
The description is as above. The conditions noted are these: read-out: KD (μM), ITC, cortisol. The procedure: as §2, §3, §4

In experiment [5] the target is T5, hcy129.1. The experiment is described as above. The conditions noted are these: read-out: KD (μM), ITC, cortisol. The procedure:
as §2, §3, §4

Experiment [6] concerns hcy129.1_CID-SmBiT and miniH11_LgBiT. The experiment in a line: Cortisol-induced dimerization NanoBiT luminescent sensor. Type of experiment: biochemical. The conditions noted are these: sensor components 200 nM each, 2 h, DTZ 25 μM; estimated; read-out: EC50 of luminescent signal.
Description: Immediately after adding the luciferase substrate diphenylterazine (DTZ) at a final concentration of 25 μΜ, the luminescent signal was measured on a Neo2 plate reader (Fig. 4H).
hcy129.1_CID (200 nM) and minibinder designed for CID (miniH11, 200 nM) was titrated with various
ligands and incubated for 2 hours, followed by addition of DTZ (25 μM) to initiate luminescence reaction.
All reactions were carried out at 50 μL final volume in HBS-EP+ buffer (Cytiva).
Experiment [7] deals with T4, roc22182.1. The experiment is described as follows: Isothermal titration calorimetry at 25 °C with rocuronium in 20 mM HEPES, 50 mM NaCl, pH 8, no DMSO, single-site binding model. The conditions noted are these: read-out: KD (μM), ITC, rocuronium. The procedure:
as §2, §3, §4

The target of another experiment is T13, roc22182.
T13 construct: N-terminal hexahistidine tag; original design
The experiment is described as above. The conditions noted are these: read-out: KD (μM), ITC, rocuronium. The procedure:
as §2, §3, §4

The next experiment concerns the target T14, wrf929.
T14 construct: N-terminal hexahistidine tag; original design
The experiment in a line: Isothermal titration calorimetry at 25 °C with warfarin or apixaban, 5% DMSO in all solutions, single-site binding model. The conditions noted are these: read-out: KD (μM), ITC, warfarin and apixaban. The procedure:
as §2, §3, §4

The target of experiment [8] is T15, wrf1071.
T15 construct: N-terminal hexahistidine tag; original design
The description is as above. The conditions noted are these: read-out: KD (μM), ITC, warfarin and apixaban. The procedure: as §2

Experiment [9] can be described thus: Cross-reactivity BLI binding to ROC-Biotin. The conditions noted are these: ROC-Biotin immobilized, binders titrated 3-fold from 25uM. The procedure: (§5) Biolayer interferometry (BLI) was used to estimate the binding affinity and screen for binding of the purified proteins and target small-molecules APX, and SN-38. […] 1 μM of small-molecule targets with biotin conjugated (APX-Biotin and SN-38-Biotin) were used as ligands to be immobilized to the Octet Streptavidin biosensors (Sartorius). Titration experiments were performed at 25 °C, and the kinetic response data was collected using Octet RED96 and R8 (ForteBio). The resulting responses of the analytes were corrected using the signal from the reference buffer, and further analysis was performed using the Octet Data Analysis software.
(§6) We performed an all by all binding experiment between all targets and representative binders for each target. […] Fluorescence polarization filter cube (Red1 FP, EX 530/25 nm;EM 590/35 nm, Agilent) was used to measure polarization. […] Biotinylated APX and ROC were immobilized to the Streptavidin biosensor and all binders were titrated 3-fold starting from 25uM. Other experimental conditions were kept the same as described above for characterization using FP and BLI.

A short description of experiment [10]: Cross-reactivity FP binding to OHP-TAMRA. The conditions noted are these: OHP-TAMRA 5 nM. The method, then:
(§7) Two-fold serial dilutions of the binder protein were prepared in 24 wells with constant amounts of the target ligand, and the plate was incubated at room temperature, shaking for at least 30 min. Fluorescence polarization filter cube (Red FP, EX 530/25 nm;EM 590/35 nm, Agilent) was used to measure polarization with the plate reader (Synergy Neo2, Biotek). A binding isotherm model was used to fit the data and estimate KD.
as §6

Experiment [11] in a line: Cross-reactivity BLI binding to APX-Biotin. The conditions noted are these: APX-Biotin immobilized, binders titrated 3-fold from 25uM. The method, then: as §5, §6
On the technique in general: In BLI a coated tip is dipped into the sample, and binding shifts an interference pattern.

Experiment [12] can be described thus: Cross-reactivity FP binding to SN-38-TAMRA. The conditions noted are these: SN-38-TAMRA 10 nM. The procedure:
as §7, §6

Experiment [13] is described as follows: Cross-reactivity FP binding to HCY-TAMRA. The conditions noted are these: HCY-TAMRA 5 nM. The method, then:
as §7, §6

Experiment [14] has as its target T15, wrf1071. The experiment is described as follows: Fluorescence polarization cross-reactivity assay with TAMRA-labelled ligands at 5 nM (HCY, OHP, WRF) or 10 nM (SN-38) titrated with binder or albumin. The conditions noted are these: read-out: KD (μM), specificity table, TAMRA-labelled targets. In kind it is binding.
Description: as §1

Experiment [15] concerns the target T3, iri807.1. The experiment in a line: Fluorescence polarization with 6 nM fluorophore-labelled OHP-AF488 or SN-38-TAMRA titrated with binder protein in PBS at room temperature, binding isotherm fit. The conditions noted are these: read-out: KD (μM), FP. The method, then:
(§8) Two-fold serial dilutions of the binder protein were prepared in 24 wells with constant amounts of the target ligand, and the plate was incubated at room temperature, shaking for at least 30 min. […] A binding isotherm model was used to fit the data and estimate KD.
as §3, §4

A further experiment has as its target T16, iri807.3.
T16 construct: N-terminal hexahistidine tag; 3 mutations compared to the original design
Described as above. The conditions noted are these: read-out: KD (μM), FP. The method, then:
as §8, §3, §4

The target of a further experiment is T17, iri3009.
T17 construct: N-terminal hexahistidine tag; original design
The experiment is described as above. The conditions noted are these: read-out: KD (μM), FP. The method, then:
as §8, §3, §4

The target of the next experiment is T18, iri807.2.
T18 construct: N-terminal hexahistidine tag; 3 mutations compared to the original design
Described as above. The conditions noted are these: read-out: KD (μM), FP. The method, then:
as §8, §3, §4

Another experiment has as its target T19, iri807.
T19 construct: N-terminal hexahistidine tag; original design
The experiment is described as above. The conditions noted are these: read-out: KD (μM), FP. The procedure: as §8, §3, §4

For “17α-hydroxyprogesterone-TAMRA (TAMRA conjugate) [OHP-TAMRA]”, the Kd on ohp1952 was 0.005 µM; on albumin it was 52 µM; on iri807.1 [1] it was 0.27 µM; on roc22182.1 [2], 0.078 µM; at hcy129.1 [3], 0.005 µM.

In the case of `COc1ccc(-n2nc(C(N)=O)c3c2C(=O)N(c2ccc(N4CCCCC4=O)cc2)CC3)cc1` [apixaban, apixaban (APX)], the equilibrium dissociation constant (Kd) was 3.16 µM on apx2592, 0.679 µM on apx1049, 5.5 µM at apx1501 and 9.67 µM at apx1493.

For `C[C@]12CCC(=O)C=C1CC[C@@H]1[C@@H]2[C@@H](O)C[C@@]2(C)[C@H]1CC[C@]2(O)C(=O)CO` [cortisol, cortisol (HCY)], the Kd at hcy129.1 [4] worked out at 0.068 µM; on hcy129.1_CID, 0.064 µM; on hcy129_mpnn5 it was 3.4 µM; at hcy129, 2.3 µM; at hcy129.1 [5], 0.065 µM.

Take `C[C@]12CCC(=O)C=C1CC[C@@H]1[C@@H]2[C@@H](O)C[C@@]2(C)[C@H]1CC[C@]2(O)C(=O)CO` [cortisol]: in [6], the EC50 is 72 nM.

As for `C=CC[N+]1([C@H]2C[C@H]3[C@@H]4CC[C@H]5C[C@H](O)[C@@H](N6CCOCC6)C[C@]5(C)[C@H]4CC[C@]3(C)[C@H]2OC(C)=O)CCCC1` [rocuronium, rocuronium (ROC)], the results for the Kd at roc22182.1 [7] and at roc22182 were greater than 4 µM and greater than 50 µM, respectively.

Turning to `CC(=O)CC(c1ccccc1)c1c(O)c2ccccc2oc1=O` (stereo not drawn) [warfarin, warfarin (WRF)], the Kd at wrf929 was 5.9 µM; on wrf1071 [8], 0.83 µM.

As for “Albumin: control protein known for promiscuous binding to hydrophobic ligands; bovine serum albumin per b230”, the “Binding affinity KD” value in [9] is listed as “No binding”; in experiment [9] (listed as albumin) it was “no binding”; in experiment [10], “weak binding”; in experiment [11], “No binding”; in experiment [11] (listed as albumin) it was “no binding”; in [12], “No binding”. Besides, the figures for the “Binding affinity KD” value in experiment [12] (listed as albumin), in [13] and in experiment [13] (listed as albumin) were “no binding”, “No binding” and “no binding”, respectively.

Consider “SN-38-TAMRA (fluorophore linker conjugate of SN-38)”, for which the Kd is 0.048 µM at iri807.1 [1]; 42 µM on wrf1071 [14]; 0.059 µM at iri807.1 [15]; 0.016 µM on iri807.3; 1.41 µM on iri3009; 0.063 µM on iri807.2. Further, the Kd on iri807 came to 0.09 µM.

In the case of “cortisol-TAMRA (TAMRA conjugate of cortisol) [HCY-TAMRA]”, the Kd is 26 µM at iri807.1 [1], 1.4 µM on roc22182.1 [2], 67 µM on wrf1071 [14] and 0.005 µM on hcy129.1 [3].

One may read the Kd as the concentration at which binding is half-saturated. As a reminder, the EC50 is the midpoint of the concentration-response curve.
